The text below walks through data of patent publication US20060172890A1, “Liquid formulation of a plant growth regulator” (priority 2004, published 2006).

The nature of data set [1]: Solubility of GA in solvents and solvent blends. The class given is physicochemical. How it is done: Gibberellic acid (GA) of 92% purity as a dry powder was used in these laboratory studies. The solvents and reagents were of reagent grade purity.
Also, the GA was easier to dissolve in the solvent blends because they were not as viscous as the single solvents. Moreover, the solvent blends had high flash points. A flash point above 140° F. is very desirable because there are less regulatory restrictions on manufacturing, transportation, and storage.

In another data set the test system is apple trees. The data set can be described thus: Phytotoxicity of sprayed aqueous solvents, field tests. The class given is in vivo. To be noted: sprayed 1 to 2% aqueous solutions; field tests with apple trees. How it is done:
(§1) The potential for phytotoxicity (plant injury) by spraying 1 to 2% aqueous solutions of ethyl lactate and solvent blends with ethyl lactate, as well as other ingredients such as glycerol and soy methyl esters was evaluated in field tests with apple trees and in greenhouse tests with corn, green bean, cucumber, tomato, ryegrass and hosta seedlings.

Data set [2] relates to corn, green bean, cucumber, tomato, ryegrass and hosta seedlings. The data set can be described thus: Phytotoxicity of sprayed aqueous solvents, greenhouse tests. The class given is in vivo. To be noted: sprayed 1 to 2% aqueous solutions; greenhouse tests with seedlings. The protocol: as §1
A further data set concerns pea seedlings. To be noted: cited from earlier work.
A further data set has as its system dwarf morning glory. To be noted: cited from earlier work.

Where two headings read alike, the source gives them in different places.

As to `C=C1C[C@]23C[C@@]1(O)CC[C@H]2[C@@]12C=C[C@H](O)[C@@](C)(C(=O)O1)[C@H]2[C@@H]3C(=O)O` [GA, Gibberellic acid], in data set [1] (80:20 (w/w) ethyl lactate with propylene glycol or glycerol), the “solubility of GA in the solvent blends compared with ethyl lactate alone” value is “twice as much”. Further, the “amount of GA dissolved in glycerol” value in data set [1] (glycerol alone, solution very viscous and difficult to mix) is listed as “a small amount”. Also, the “effect of mild heating on dissolution of GA in ethyl lactate” value in data set [1] (mild heating to 60° C.) is given as “did not increase the dissolution”. Moreover, the “amount of GA dissolved in propylene glycol” value in data set [1] (propylene glycol alone, solution very viscous and difficult to mix) was “a small amount”. In addition, the “solubility of GA in ethyl lactate alone” value in data set [1] (room temperature) is given as “approximately 2 % (w/w)”.
Consider `CCOC(=O)C(C)O` (centres unmarked) [ethyl lactate], for which the “phytotoxicity (plant injury)” value (with apple trees; in data set [2]) was “no evidence of phytotoxicity” in each case.
Take gibberellin: the “effect on shoot length” value in the data set with pea seedlings (ten micrograms applied at 3 days old) is “nearly doubled shoot length”; in the data set on pea seedlings (ten micrograms, 9 day old seedlings), “barely affected”. The effect on flowering entry in the data set with dwarf morning glory (2 to 20 micrograms) is given as “inhibits flowering”; in the data set on dwarf morning glory (application of 0.02 micrograms), “promotes flowering”.
